Measured values as given in patent US10335448B2, “Compositions and methods for inhibiting fibrosis” (The UAB Research Foundation, priority 2014, dated 2019).
“Also recorded” adds a separate entry of the source. Where a SMILES comes first, the peptide text is derived from it.

How the values were obtained:
rhACE = rhACE (Homo sapiens, UniProt P12821); settings: not told
[1] = system: CXC receptors on neutrophils; settings: Haddox et al. 1999; cited from earlier work
IMR-90 fibroblasts = assay: Scratch wound migration of IMR-90 fibroblasts and TGF-β1-differentiated myofibroblasts; type: cell-based, human; settings: 100 μM Ac-PGP, 48 h
Method: FIGS. 11A-H show IMR-90 fibroblasts under different conditions. IMR-90 fibroblasts were grown to 80-90% confluence (A, C) and differentiated to myofibroblasts with TGF-β1 (E, G). A scratch was made and 100 μM Ac-PGP was added to some cells (FIGS. 11C, G).
(§1) The simplest explanation for this is a direct effect of Ac-PGP on the myofibroblast, altering its phenotype to stop or perhaps reverse fibrosis. […] Human lung fibroblasts were co-incubated with TGF-β and Ac-PGP and the effects on matrix generation and markers of MF activation and differentiation were observed.

[2] = system: IMR-90 fibroblasts differentiated to myofibroblasts; assay: Western blot of matrix and differentiation markers in IMR-90 myofibroblasts (TGF-β plus Ac-PGP); type: cell-based, human
Method: IMR-90 fibroblasts were differentiated to myofibroblasts with TGF-β 2.5 ng/ml. Ac-PGP at differing concentrations (0, 1, 3, 10 and 30 μg/ml) was added at the same time. Whole cell lysates were obtained after 48 h and probed by WB for the indicated proteins.
as §1

[3] = system: bleomycin-induced lung fibrosis; assay: Bleomycin-induced pulmonary fibrosis in mice, peptide given intratracheally; settings: for lung fibrosis measured as lung hydroxyproline, second trial: 250 μg IT daily for two weeks starting day 7, n=6 (FIG. 6); for lung fibrosis on histology (H&E), second trial: 250 μg per day IT for 2 weeks starting day 7 (FIG. 5); for pulmonary fibrosis, summary statement: intra-tracheal administration to bleomycin-exposed mice
[4] = system: bleomycin-induced lung fibrosis; settings: background statement; cited from earlier work
[5] = TGF-β 2.5 ng/ml, Ac-PGP 1-30 μg/ml, 48 h, WB

rhACE, sequence (P12821 30-1306): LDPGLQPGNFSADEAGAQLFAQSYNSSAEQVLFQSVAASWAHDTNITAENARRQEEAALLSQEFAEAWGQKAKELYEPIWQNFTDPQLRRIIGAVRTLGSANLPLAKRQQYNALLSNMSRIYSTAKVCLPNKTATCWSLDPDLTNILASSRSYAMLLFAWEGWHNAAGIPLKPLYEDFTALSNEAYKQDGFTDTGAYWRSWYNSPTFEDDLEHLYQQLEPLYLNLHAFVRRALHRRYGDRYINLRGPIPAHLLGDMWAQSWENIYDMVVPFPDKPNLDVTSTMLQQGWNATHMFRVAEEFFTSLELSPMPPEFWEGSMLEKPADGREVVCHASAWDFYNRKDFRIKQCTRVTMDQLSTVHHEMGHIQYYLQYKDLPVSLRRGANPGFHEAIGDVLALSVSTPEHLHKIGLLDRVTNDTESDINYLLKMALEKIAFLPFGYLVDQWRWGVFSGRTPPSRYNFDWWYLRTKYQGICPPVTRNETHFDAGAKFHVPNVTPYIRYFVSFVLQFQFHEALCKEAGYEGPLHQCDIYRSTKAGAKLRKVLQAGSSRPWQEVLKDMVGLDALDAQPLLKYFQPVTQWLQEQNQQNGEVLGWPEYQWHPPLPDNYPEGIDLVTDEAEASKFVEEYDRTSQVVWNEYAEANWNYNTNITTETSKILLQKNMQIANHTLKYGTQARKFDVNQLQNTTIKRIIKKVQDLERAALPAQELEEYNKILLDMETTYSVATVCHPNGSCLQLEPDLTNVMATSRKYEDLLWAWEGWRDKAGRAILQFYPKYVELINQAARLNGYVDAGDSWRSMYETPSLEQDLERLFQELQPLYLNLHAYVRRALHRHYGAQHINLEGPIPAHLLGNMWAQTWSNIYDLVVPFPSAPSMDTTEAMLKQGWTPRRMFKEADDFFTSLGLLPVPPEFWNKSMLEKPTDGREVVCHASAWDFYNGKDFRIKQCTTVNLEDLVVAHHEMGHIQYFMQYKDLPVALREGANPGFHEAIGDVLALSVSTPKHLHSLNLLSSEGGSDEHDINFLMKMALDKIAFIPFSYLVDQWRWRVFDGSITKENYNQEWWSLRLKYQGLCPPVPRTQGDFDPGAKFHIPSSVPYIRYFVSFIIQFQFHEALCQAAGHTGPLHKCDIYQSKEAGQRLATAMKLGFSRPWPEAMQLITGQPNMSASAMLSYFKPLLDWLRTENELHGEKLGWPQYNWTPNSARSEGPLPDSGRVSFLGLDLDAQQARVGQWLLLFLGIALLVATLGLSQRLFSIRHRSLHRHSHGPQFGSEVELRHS

| SMILES | Ac-PGP breakdown by rhACE (in words) (rhACE) | potency relative to PGP [1] | migration of un-differentiated fibroblasts across the wound (IMR-90 fibroblasts) | migration of myofibroblasts across the wound (IMR-90 fibroblasts; TGF-β1-differentiated) | myofibroblast differentiation and pro-fibrotic functions in vitro, summary statement [2] | SRC phosphorylation [2, 5] | collagen expression [2, 5] | fibronectin expression [2, 5] | α-SMA expression [2, 5] | dose giving the greatest inhibition of myofibroblasts ([2]; lesser effects at 30 and 10 μg/ml) [µg/mL] | effectiveness on lung fibrosis measured as lung hydroxyproline ([3]; 125 μg per day IT, days 7 to 21, n=8 (FIG. 4)) | effectiveness at abrogating bleomycin-induced pulmonary fibrosis, second trial ([3]; 250 μg IT daily (FIG. 5)) [%] | lung fibrosis measured as lung hydroxyproline, second trial [3] | lung fibrosis measured as lung hydroxyproline ([3]; 250 μg IT daily for two weeks starting day 7, n=8 (FIG. 4)) | lung fibrosis on histology (H&E), second trial [3] | lung fibrosis on lung histology (H&E) ([3]; Ac-PGP 125 μg IT per day, days 7 to 21 after bleomycin (FIG. 3)) | lung fibrosis on lung histology (H&E) ([3]; Ac-PGP 250 μg IT daily for two weeks starting day 7 after bleomycin, vs PBS-treated controls (FIG. 3)) | pulmonary fibrosis, summary statement [3] | fibrosis in the bleomycin model [4] |
| --- | --- | --- | --- | --- | --- | --- | --- | --- | --- | --- | --- | --- | --- | --- | --- | --- | --- | --- | --- |
| CC(=O)N1CCC[C@H]1C(=O)NCC(=O)N1CCC[C@H]1C(=O)O [Ac-PGP, N-acetyl-proline-glycine-proline] (Ac-Pro-Gly-Pro-OH; C-terminus assumed) | degraded | several times more potent | did not affect; also recorded: but not fibroblasts | markedly reduced; also recorded: inhibited migration | inhibited myofibroblast differentiation and pro-fibrotic functions | reduced | reduced | reduced | reduced | 3 | about 50% | ~100 | almost completely abrogates | almost completely abrogates | abrogates | intermediate effect; also recorded: about half as effective | almost completely abrogates lung fibrosis; also recorded: almost completely abrogated | abrogated pulmonary fibrosis dose-dependently; also recorded: dramatic inhibition of fibrosis; also recorded: greatly reduces fibrosis | – |
| C[C@H](CS)C(=O)N1CCC[C@H]1C(=O)O [Captopril, reference compound] | – | – | – | – | – | – | – | – | – | – | – | – | – | – | – | – | – | – | reduces fibrosis |
| O=C(NCC(=O)N1CCC[C@H]1C(=O)O)[C@@H]1CCCN1 [PGP, proline-glycine-proline] (H-Pro-Gly-Pro-OH; C-terminus assumed) | – | – | – | – | – | – | – | – | – | – | – | – | less effective | – | partially effective; also recorded: half as effective | – | – | partial effect | – |
